# In patent US20240002369A1, “NOVEL TREATMENTS OF ATTENTION DEFICIT/HYPERACTIVITY DISORDER” (priority 2020, published 2024):
# “Also recorded” adds a separate entry of the source. Structures can show the parent of a compound that is named as a salt. Marks after values point to notes of the source that are not given here.
# Tests used:
# Lphn3.1 HOM larvae [1] = assay: Sleep behavior in freely moving zebrafish larvae during lights-off period; conditions: for comparison of all sleep parameters (summary): 1, 10, 30 μM, FIG. 6A-6D
# Protocol: This assay provides a measure of muscle weakness and/or motor coordination, which co-occurs with certain sleep states, but can also occur independently of sleep. […] Thus, to evaluate the effect of moxonidine on sleep behavior, the sleep behavior in freely moving zebrafish (Lphn3.1 HOM larvae) following treatment with moxonidine, a comparator compound, or negative control (i.e. saline or vehicle control) was assessed in line with the criteria described by Levitas-Djerbi et al., (Curr Opin Neurobiol. 2017; 44:89-93) and Sorribes et al., (Front Neural Circuits. 2013 Nov. 13; 7:178).
# In brief, sleep behavior was recorded in a 96-well plate and analysed during the lights-off period (22:00-08:00). First, all behavior was dichotomized into 1-s bins of movement or non-movement. […] All activity that was slower than that threshold was computed as non-movement. Thus, rendering a dichotomized record of the behavior in either movement or non-movement. Next, the dichotomized record was transformed into bins of sleep and wake. Following previously established sleep criteria in adults, and adapted to larval fish (Yokogawa et al., PLoS Biol. 2007; 5(10):2379-97, Sorribes et al., Front Neural Circuits. 2013; 7:178, and Sigurgeirsson et al., Behav Brain Res. 2013; 256:377-90), six or more consecutive 1-s bins of non-movement were counted as sleep and all else was counted as wake. That is, the seventh second and above were classified as sleep; all other bouts were classified as wake. Once the number of sleep and wake bouts was calculated, five different sleep parameters were assessed (i.e. sleep fragmentation, sleep ratio, velocity during sleep, wake bout duration(s), and sleep bout duration(s)). Sleep fragmentation was defined as the number of transitions between sleep and wake bouts per hour. Sleep ratio was calculated as the percentage of total night time that the fish was considered asleep. Velocity during sleep (mm/s) was defined as the average velocity throughout the night time. Wake bout duration(s) was defined as the average length of wake bouts. Sleep bout duration(s) was defined as the average length of sleep bouts.
# [2] = Tan et al., Proc Natl Acad Sci USA 2002; cited from earlier work
# Lphn3.1 WT larvae = assay: Motor assay in wild-type zebrafish larvae; assay type: in vivo, zebrafish (Danio rerio)
# [3] = test system: scopolamine-induced cognitive dysfunction; assay: T-maze alternation test, scopolamine-induced cognitive dysfunction model; assay type: in vivo, Male CD-1 mice
# Text: Male CD-1 mice aged 4-5 weeks were allocated to a T-maze to perform the T-maze alternation test as described by Andriambeloson et al., 2014 (Pharma Res Per, 2 (4), 2014, e00048, included herein by reference). In brief, each mouse was placed in a T-maze consisting of a main stem and two arms. The experiment consisted of one “forced-choice” trial and 14 “free-choice” trials to evaluate the number of spontaneous alternations.
# Lphn3.1 HOM larvae [4] = assay: Motor assay in the zebrafish model of ADHD (Lphn3.1 knock-out larvae); assay type: in vivo, zebrafish (Danio rerio)
# Text: Zebrafish larvae carrying a knock-out of the Latrophilin3 (Lphn3.1) gene were generated by CRISPR-Cas9. Zebrafish were kept in a 14:10 light: dark cycle in 3 or 10 L multi tank constant flow system (Aquatic Habitats, Apopka, FL, USA). For behavioral analysis a total number of 881, 6 days-post fertilization (dpf) embryos carrying a homozygous knock-out of the Lphn3.1 gene were used in the study. Adult zebrafish with a homozygous knock-out of the Lphn3.1 gene and adult zebrafish with a wild-type Lphn3.1 gene were fed three times a day on a variable diet of TetraMin flakes (Tetra Holding GmbH, Melle, Germany) and live Artemia. […]
# Following a 24 hour acclimation period, behavioral recordings were made. Locomotor activity was recorded between […] and 6.00 pm at 6 dpf during alternating light and dark conditions, presented in 30-minute intervals. For this period, average distance moved (mm) by the larvae was calculated as the mean of the total distance swum during five separate 30-minute intervals immediately after transition of light conditions. […]
# Data was obtained using EthoVision XT (Version Nov. 5, 2016, Noldus) and exported to Microsoft Excel for analysis. […] For analysis of Lphn 3.1 larvae treated with moxonidine statistical differences were evaluated using one-way ANOVA with Dunnett two-sided post hoc analysis. […]
# [5] = 1 uM vs HOM - DMSO, average length of sleep bouts
# [6] = 1 uM vs HOM - DMSO, average length of wake bouts
# [7] = 1 uM vs HOM - DMSO, average velocity throughout the night time
# [8] = 1 uM vs HOM - DMSO, share of total night time asleep
# [9] = 1 uM vs HOM - DMSO, transitions between sleep and wake bouts per hour, lights-off 22:00-08:00
# [10] = 10 uM vs HOM - DMSO, average length of sleep bouts
# [11] = 10 uM vs HOM - DMSO, average length of wake bouts
# [12] = 10 uM vs HOM - DMSO, average velocity throughout the night time
# [13] = 10 uM vs HOM - DMSO, share of total night time asleep
# [14] = 10 uM vs HOM - DMSO, transitions between sleep and wake bouts per hour, lights-off 22:00-08:00
# [15] = 30 uM vs HOM - DMSO, average length of sleep bouts
# [16] = 30 uM vs HOM - DMSO, average length of wake bouts
# [17] = 30 uM vs HOM - DMSO, average velocity throughout the night time
# [18] = 30 uM vs HOM - DMSO, share of total night time asleep
# [19] = 30 uM vs HOM - DMSO, transitions between sleep and wake bouts per hour, lights-off 22:00-08:00
# [20] = Lphn3.1 HOM, zebrafish, in vivo, 10 h, 1 uM
# [21] = Lphn3.1 HOM, zebrafish, in vivo, 10 h, 10 uM
# [22] = Lphn3.1 HOM, zebrafish, in vivo, 10 h, 30 uM
compound,measurement,setting,value
"Clc1cccc(Cl)c1N=C1NCCN1 [Clonidine, clonidine]",SleepDuration (sleep bout duration) Mean Difference (I − J),Lphn3.1 HOM larvae [1]; [5],−4.177* s
same,WakeDuration (wake bout duration) Mean Difference (I − J),Lphn3.1 HOM larvae [1]; [6],2.095* s
same,Velocity (during sleep) Mean Difference (I − J),Lphn3.1 HOM larvae [1]; [7],.08382* mm/s
same,SleepRatio Mean Difference (I − J),Lphn3.1 HOM larvae [1]; [8],−.12630*
same,SleepFragmentation Mean Difference (I − J),Lphn3.1 HOM larvae [1]; [9],11.79*
same,SleepDuration (sleep bout duration) Mean Difference (I − J),Lphn3.1 HOM larvae [1]; [10],−4.388* s
same,WakeDuration (wake bout duration) Mean Difference (I − J),Lphn3.1 HOM larvae [1]; [11],2.1* s
same,Velocity (during sleep) Mean Difference (I − J),Lphn3.1 HOM larvae [1]; [12],.09470* mm/s
same,SleepRatio Mean Difference (I − J),Lphn3.1 HOM larvae [1]; [13],−.13226*
same,SleepFragmentation Mean Difference (I − J),Lphn3.1 HOM larvae [1]; [14],12.98*
same,SleepDuration (sleep bout duration) Mean Difference (I − J),Lphn3.1 HOM larvae [1]; [15],−6.197* s
same,WakeDuration (wake bout duration) Mean Difference (I − J),Lphn3.1 HOM larvae [1]; [16],8.132* s
same,Velocity (during sleep) Mean Difference (I − J),Lphn3.1 HOM larvae [1]; [17],.23026* mm/s
same,SleepRatio Mean Difference (I − J),Lphn3.1 HOM larvae [1]; [18],−.24115*
same,SleepFragmentation Mean Difference (I − J),Lphn3.1 HOM larvae [1]; [19],−7.699
same,comparison of all sleep parameters (summary),Lphn3.1 HOM larvae [1],drastically altered all sleep parameters at the majority of doses tested
"N=C(N)NC(=O)Cc1c(Cl)cccc1Cl [Guanfacine, guanfacine]",SleepDuration (sleep bout duration) Mean Difference (I − J),Lphn3.1 HOM larvae [1]; [20],3.64* s
same,SleepFragmentation Mean Difference (I − J),Lphn3.1 HOM larvae [1]; [20],−1.812
same,SleepRatio Mean Difference (I − J),Lphn3.1 HOM larvae [1]; [20],.12336*
same,Velocity (during sleep) Mean Difference (I − J),Lphn3.1 HOM larvae [1]; [20],−.08559* mm/s
same,WakeDuration (wake bout duration) Mean Difference (I − J),Lphn3.1 HOM larvae [1]; [20],−3.163* s
same,SleepDuration (sleep bout duration) Mean Difference (I − J),Lphn3.1 HOM larvae [1]; [21],1.224 s
same,SleepFragmentation Mean Difference (I − J),Lphn3.1 HOM larvae [1]; [21],7.4424
same,SleepRatio Mean Difference (I − J),Lphn3.1 HOM larvae [1]; [21],.06927*
same,Velocity (during sleep) Mean Difference (I − J),Lphn3.1 HOM larvae [1]; [21],−.07521* mm/s
same,WakeDuration (wake bout duration) Mean Difference (I − J),Lphn3.1 HOM larvae [1]; [21],−2.542* s
same,SleepDuration (sleep bout duration) Mean Difference (I − J),Lphn3.1 HOM larvae [1]; [22],2.369* s
same,SleepFragmentation Mean Difference (I − J),Lphn3.1 HOM larvae [1]; [22],1.559
same,SleepRatio Mean Difference (I − J),Lphn3.1 HOM larvae [1]; [22],.09806*
same,Velocity (during sleep) Mean Difference (I − J),Lphn3.1 HOM larvae [1]; [22],−.08512* mm/s
same,WakeDuration (wake bout duration) Mean Difference (I − J),Lphn3.1 HOM larvae [1]; [22],−2.735* s
"COc1nc(C)nc(Cl)c1NC1=NCCN1 [Moxonidine, moxonidine]",SleepDuration (sleep bout duration) Mean Difference (I − J),Lphn3.1 HOM larvae [1]; [5],-1.586 s
same,WakeDuration (wake bout duration) Mean Difference (I − J),Lphn3.1 HOM larvae [1]; [6],0.8031 s
same,Velocity (during sleep) Mean Difference (I − J),Lphn3.1 HOM larvae [1]; [7],−0.02492 mm/s
same,SleepRatio Mean Difference (I − J),Lphn3.1 HOM larvae [1]; [8],−0.04916
same,SleepFragmentation Mean Difference (I − J),Lphn3.1 HOM larvae [1]; [9],3.2294
same,SleepDuration (sleep bout duration) Mean Difference (I − J),Lphn3.1 HOM larvae [1]; [10],-1.0974 s
same,WakeDuration (wake bout duration) Mean Difference (I − J),Lphn3.1 HOM larvae [1]; [11],-0.00334 s
same,Velocity (during sleep) Mean Difference (I − J),Lphn3.1 HOM larvae [1]; [12],−.07640* mm/s
same,SleepRatio Mean Difference (I − J),Lphn3.1 HOM larvae [1]; [13],−0.02153
same,SleepFragmentation Mean Difference (I − J),Lphn3.1 HOM larvae [1]; [14],5.727
same,SleepDuration (sleep bout duration) Mean Difference (I − J),Lphn3.1 HOM larvae [1]; [15],-1.57 s
same,WakeDuration (wake bout duration) Mean Difference (I − J),Lphn3.1 HOM larvae [1]; [16],3.687 s
same,Velocity (during sleep) Mean Difference (I − J),Lphn3.1 HOM larvae [1]; [17],−.05041* mm/s
same,SleepRatio Mean Difference (I − J),Lphn3.1 HOM larvae [1]; [18],−0.06247
same,SleepFragmentation Mean Difference (I − J),Lphn3.1 HOM larvae [1]; [19],−1.7339
same,comparison of all sleep parameters (summary),Lphn3.1 HOM larvae [1],only a slight increase in velocity
same,sedation in the rotarod assay,[2],less sedation compared to clonidine and brimonidine
same,velocity in wild-type larvae,Lphn3.1 WT larvae,increase velocity
same,behavioral parameters (24 hour velocity spectrogram),"Lphn3.1 WT larvae; 10 μM, FIG. 5",no effect on behavioral parameters
same,"spontaneous alternation, dose dependence","[3]; 0.1 mg/kg, 0.3 mg/kg and 1 mg/kg, FIG. 4",dose-dependent increase in spontaneous alternation
same,spontaneous alternation,"[3]; 0.3 mg/kg vs mice exposed to scopolamine, p<0.001",significant increased spontaneous alternation
same,spontaneous alternation,"[3]; 1 mg/kg vs mice exposed to scopolamine, p<0.0001",significant increased spontaneous alternation
same,average distance moved over the five lights-on phases,"Lphn3.1 HOM larvae [4]; 1 μM, 10 μM or 30 μM vs vehicle control (DMSO), FIG. 3",differed significantly from vehicle control and untreated larvae; also recorded: Statistically significant differences
same,behavioral deficits (24 hour velocity spectrogram),"Lphn3.1 HOM larvae [4]; 10 μM, Lphn3.1 HOM larvae, FIG. 5",rectifies the behavioral deficits
"CNCC[C@@H](Oc1ccccc1C)c1ccccc1 [atomoxetine, atomoxetine hydrochloride]",SleepDuration (sleep bout duration) Mean Difference (I − J),Lphn3.1 HOM larvae [1]; [5],8.266* s
same,WakeDuration (wake bout duration) Mean Difference (I − J),Lphn3.1 HOM larvae [1]; [6],−2.547* s
same,Velocity (during sleep) Mean Difference (I − J),Lphn3.1 HOM larvae [1]; [7],−.09320* mm/s
same,SleepRatio Mean Difference (I − J),Lphn3.1 HOM larvae [1]; [8],.18730*
same,SleepFragmentation Mean Difference (I − J),Lphn3.1 HOM larvae [1]; [9],−23.58*
same,SleepDuration (sleep bout duration) Mean Difference (I − J),Lphn3.1 HOM larvae [1]; [10],6.306* s
same,WakeDuration (wake bout duration) Mean Difference (I − J),Lphn3.1 HOM larvae [1]; [11],-1.806 s
same,Velocity (during sleep) Mean Difference (I − J),Lphn3.1 HOM larvae [1]; [12],−.03944* mm/s
same,SleepRatio Mean Difference (I − J),Lphn3.1 HOM larvae [1]; [13],.15382*
same,SleepFragmentation Mean Difference (I − J),Lphn3.1 HOM larvae [1]; [14],−19.14*
same,SleepDuration (sleep bout duration) Mean Difference (I − J),Lphn3.1 HOM larvae [1]; [15],9.808* s
same,WakeDuration (wake bout duration) Mean Difference (I − J),Lphn3.1 HOM larvae [1]; [16],−3.112* s
same,Velocity (during sleep) Mean Difference (I − J),Lphn3.1 HOM larvae [1]; [17],−.10640* mm/s
same,SleepRatio Mean Difference (I − J),Lphn3.1 HOM larvae [1]; [18],.22326*
same,SleepFragmentation Mean Difference (I − J),Lphn3.1 HOM larvae [1]; [19],−26.47*
same,comparison of all sleep parameters (summary),Lphn3.1 HOM larvae [1],drastically altered all sleep parameters at the majority of doses tested
same,velocity in wild-type larvae,Lphn3.1 WT larvae,increase velocity
same,"spontaneous alternations, rescue of scopolamine effect","[3]; vs scopolamine-exposed mice, p<0.0001, FIG. 4",rescued
